Among the data in article PMC13194723, “Structural basis for pH-responsive amino acid transport via SLC7A4” (Nature Communications, 2026) are IC50 and Kd values, retold here.

The target of experiment [1] is T1, human SLC7A4 triple mutant (Tri-M) (Homo sapiens, UniProt O43246, L336S/L394M/V332S).
T1 construct: C-terminal FLAG tag
T1 sequence (O43246 1-635 V332S/L336S/L394M): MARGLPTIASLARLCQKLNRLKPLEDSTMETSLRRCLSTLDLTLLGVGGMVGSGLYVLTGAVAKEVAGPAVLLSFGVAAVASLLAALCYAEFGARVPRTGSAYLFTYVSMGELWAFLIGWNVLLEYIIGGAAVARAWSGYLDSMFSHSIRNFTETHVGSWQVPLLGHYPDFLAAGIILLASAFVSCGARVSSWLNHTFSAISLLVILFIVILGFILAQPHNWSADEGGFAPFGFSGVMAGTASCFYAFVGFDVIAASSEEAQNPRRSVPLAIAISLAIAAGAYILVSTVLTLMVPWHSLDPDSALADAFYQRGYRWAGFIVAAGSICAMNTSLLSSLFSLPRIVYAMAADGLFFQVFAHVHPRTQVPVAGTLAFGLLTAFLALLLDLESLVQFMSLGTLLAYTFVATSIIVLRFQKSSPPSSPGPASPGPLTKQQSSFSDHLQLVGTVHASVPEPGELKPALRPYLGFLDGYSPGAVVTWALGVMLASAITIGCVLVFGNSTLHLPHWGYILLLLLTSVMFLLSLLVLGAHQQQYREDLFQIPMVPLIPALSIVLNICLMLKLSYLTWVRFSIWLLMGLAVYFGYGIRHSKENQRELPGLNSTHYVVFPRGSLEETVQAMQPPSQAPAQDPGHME
In words: […] L-Leu uptake and competition in HCT116 SLC7A5 KO cells. The class given is cell-based.

For experiment [2], the target named is T2, human SLC7A4 (Homo sapiens, UniProt O43246).
T2 construct: C-terminal FLAG tag
T2 sequence (O43246 1-635): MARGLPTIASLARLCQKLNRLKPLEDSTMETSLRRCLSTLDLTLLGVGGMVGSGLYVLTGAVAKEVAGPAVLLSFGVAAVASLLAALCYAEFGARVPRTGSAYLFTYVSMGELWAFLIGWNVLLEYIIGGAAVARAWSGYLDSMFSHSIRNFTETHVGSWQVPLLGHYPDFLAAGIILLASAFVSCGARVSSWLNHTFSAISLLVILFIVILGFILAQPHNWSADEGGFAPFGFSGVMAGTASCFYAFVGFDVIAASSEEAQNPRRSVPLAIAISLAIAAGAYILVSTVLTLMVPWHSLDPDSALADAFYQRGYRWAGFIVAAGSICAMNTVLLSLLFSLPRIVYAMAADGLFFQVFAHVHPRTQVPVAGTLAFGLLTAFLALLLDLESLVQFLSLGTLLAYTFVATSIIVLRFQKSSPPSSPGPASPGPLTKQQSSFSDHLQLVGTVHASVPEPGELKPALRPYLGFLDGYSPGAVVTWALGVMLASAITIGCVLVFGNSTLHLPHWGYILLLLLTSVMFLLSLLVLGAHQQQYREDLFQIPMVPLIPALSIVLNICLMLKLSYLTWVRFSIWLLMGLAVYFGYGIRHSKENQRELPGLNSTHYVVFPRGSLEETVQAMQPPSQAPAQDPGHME
The experiment can be described thus: […] L-Leu uptake competition in HCT116 SLC7A5 KO cells overexpressing SLC7A4; also nanoDSF (~[…] °C) and proteoliposome uptake. The experiment is classed as cell-based. In general terms: Differential scanning fluorimetry follows unfolding on heating by fluorescence.

The target of experiment [3] is T1, human SLC7A4 triple mutant (Tri-M). The experiment can be described thus: competition of […] L-Leu uptake in HCT116 SLC7A5 KO cells. The experiment is classed as cell-based.
Experiment [4] concerns the target T2, human SLC7A4. In words: competition of […] L-Leu uptake in HCT116 SLC7A5 KO cells; also recognised in nanoDSF; not transported. The class given is cell-based.
The target of experiment [5] is T3, Arabidopsis thaliana CAT4 (SLC7A4/CAT4) (Arabidopsis thaliana (Mouse-ear cress)., UniProt Q8W4K3).
T3 construct: Cationic amino acid transporter 4 (CAT4) of Arabidopsis thaliana, UniProt Q8W4K3; codon-optimised synthetic gene in pDDGFP-Leu2D; C-terminal TEV site (ENLYFQG/S), yeGFP and His12 removed by TEV protease, so part of the TEV site stays on the C-terminus; also called AtCAT4; Arabidopsis thaliana SLC7A4; source: S. cerevisiae BJ5460, purified in LMNG (Ni-NTA, TEV cleavage, HisTrap flow-through, SEC); …
T3 sequence (Q8W4K3 whole entry): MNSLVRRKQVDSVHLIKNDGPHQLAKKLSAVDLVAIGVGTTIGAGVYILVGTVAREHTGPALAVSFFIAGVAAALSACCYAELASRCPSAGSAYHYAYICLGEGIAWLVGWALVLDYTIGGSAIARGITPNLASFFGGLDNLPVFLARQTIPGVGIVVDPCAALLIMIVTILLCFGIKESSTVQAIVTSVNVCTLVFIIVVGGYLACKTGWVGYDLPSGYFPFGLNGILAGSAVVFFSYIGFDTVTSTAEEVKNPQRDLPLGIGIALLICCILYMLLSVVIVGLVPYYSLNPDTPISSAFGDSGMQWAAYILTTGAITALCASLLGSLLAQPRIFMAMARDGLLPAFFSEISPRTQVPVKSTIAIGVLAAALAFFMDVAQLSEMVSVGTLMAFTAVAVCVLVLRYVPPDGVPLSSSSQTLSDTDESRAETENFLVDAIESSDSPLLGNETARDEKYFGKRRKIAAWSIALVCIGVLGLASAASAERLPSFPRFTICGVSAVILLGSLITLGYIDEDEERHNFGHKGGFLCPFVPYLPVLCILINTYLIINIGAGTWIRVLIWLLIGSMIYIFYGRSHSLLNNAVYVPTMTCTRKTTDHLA
The experiment can be described thus: BLI; Octet Red 384; who was immobilised is not stated. The conditions noted are these: both partners purified. (BLI is a label-free optical method that tracks binding on a fibre tip over time.)

The IC50 is the concentration that gives 50% inhibition. Read a high IC50 as weaker potency. In the case of `CC(C)C[C@H](N)C(=O)O` [L-Leucine], the concentration for half-maximal inhibition (IC50) in experiment [1] is 65 µM; on human SLC7A4 [2], 24 ± 5 µM. As to `N=C(N)NCCC[C@H](N)C(=O)O` [L-Arginine], the half-maximal inhibitory concentration (IC50) worked out at 48.6 ± 2.3 µM in experiment [3] and 680 ± 19 µM on human SLC7A4 [4].

B1: Sybody B5 (VHH)
VHH: QVQLVESGGGLVQAGGSLRLSCAASGFPVNMYWMHWYRQAPGKEREWVAAIQSYGQWTAYADSVKGRFTISRDNAKNTVYLQMNSLKPEDTAVYYCAVGVGGYYLGQGTQVTVS
notes: Synthetic nanobody selected from the loop sybody library against AtCAT4; also called SybB5; source: E. coli MC1061, periplasmic extraction, purified (Ni-NTA); not shown: Myc, C-terminal, kept; His6, C-terminal, kept
For orientation: Kd means the constant that tells how readily two partners part at equilibrium. The low end stands for a tighter complex, the high end for a looser complex. B1: the affinity in experiment [5], expressed as Kd, was 0.0573 ± 0.0105 µM.
